# From patent publication US20220288004A1, “TREATMENT AND PREVENTION OF AGING RELATED-DISEASE AND/OR AGING BY THE INHIBITION OF SPHINGOLIPIDS” (ECOLE POLYTECHNIQUE FEDERALE DE LAUSANNE (EPFL), priority 2019, published 2022)
# Entries after “also recorded” stand apart in the source; their conditions may differ.
# Tests used:
# [1] = system: skeletal muscle of aged mice; assay: Proteostasis (A11 staining) in skeletal muscle of aged mice; assay type: in vivo, mouse
# Experimental: FIG. 17. […] Values are expressed as mean±s.e.m. *P≤0.05. Differences between two groups were assessed using Student's two-tailed t-tests (error bars: 95% confidence intervals).
# aged C57Bl/6JRj mice = assay: Muscle function tests (treadmill, aerobic capacity, grip strength, rotarod, crossbar) in aged mice; assay type: in vivo, mouse; conditions: myriocin 5 months vs DMSO
# Experimental: To examine whether a causal relationship could underlie the correlation between SphPC1 and muscle mass and function, it was tested whether inhibition of sphingolipid de novo biosynthesis pathway could protect against age-related muscle dysfunction. Aged (18-month-old) C57Bl/6JRj mice were treated for 5 months on chow diet with myriocin, a specific inhibitor of SPT, the first and rate-limiting enzyme of the sphingolipid de novo synthesis pathway, and whose expression in skeletal muscle was negatively correlated with muscular fitness in BXDs.
# Animals. Young (2-month-old) and aged (18-month-old) C57Bl/6JRj mice were purchased from Janvier Labs. EchoMRI measuring the fat and lean body mass, were measured before and after the treatment. The dose of myriocin was 0.4 mg/kg/3 times a week. Myriocin (Enzo Life Sciences, Farmingdale, N.Y.) was first dissolved in DMSO which was then mixed with PBS so that each mouse received 1.5 μL DMSO per injection. Animals were fed on a standard chow diet. All animals were housed in micro-isolator cages in a room illuminated from 7:00 AM to 7:00 PM with ad libitum access to diet and water. All the animal experiments are authorized by animal license 2890.1 and 3341 in Canton of Vaud, Switzerland.
# Endurance running test. The exercise regimen on a treadmill commenced at a speed of 9 cm/s. As the mice were aged, an inclination of 0 degrees was used. Mice were considered to be exhausted, and removed from the treadmill if they received 7 or more shocks (0.2 mA) per minute for two consecutive minutes. The distance traveled and time before exhaustion were registered as maximal running distance and time.
# Grip strength. Muscle strength was assessed by grip strength test. The grip strength of each mouse was measured on a pulldown grid assembly connected to a grip strength meter (Columbus Instruments). The mouse was drawn along a straight line parallel to the grip, providing peak force. The experiment was repeated three times, and the highest value was included in the analysis.
# Rotarod test. The rotarod test measures muscle strength, coordination, and endurance. Mice were left undisturbed in the room for 30 min. The speed of the rotating cylinder (rotarod) increased from 0 to 40 rpm in 5 min. Each mouse had 3 trials per day for 3 consecutive days. The latency and speed the mouse reached it passive rotation or fall from the rotor was recorded, and the latency and speed of the best trial of the second day is presented.
# Crossbar test. Crossbar test assesses active balance through the ability to balance while walking along an elevated beam to reach a dark end side where they are able hide. Since all the mice were easily able to cross a squared (3 cm) beam, and a circular beam of diameter 1.5 cm was too difficult to them, the latency was recorded to cross a circular beam of 3 cm. The mice were trained for one day before the actual trial was recorded, and the average of the latency of three trials per mouse is presented.
# C2C12 myoblasts = assay: C2C12 myoblast differentiation; assay type: cell-based, mouse; conditions: C2C12, 30 μM myriocin vs DMSO
# Experimental: Cell culture and cell transfection. The C2C12 mouse myoblast cell line was obtained from the American Type Culture Collection (CRL-1772™). C2C12 cells or clones were cultured in growth medium consisting of Dulbecco's modified Eagle's medium (Gibco, 41966-029), 20% Fetal Bovine Serum (Gibco, 10270-106) and 100 U/mL penicillin and […] streptomycin (Gibco, 15140-122). To induce differentiation, FBS was substituted with 2% horse serum (Gibco, 16050-122). Trypsin-EDTA 0.05% (GIBCO, 25300-062) was used to detach cells. Human skeletal muscle cells were obtained from Lonza (SkMC, #CC-2561) and cultured in growth medium consisting of DMEM/F12 (Gibco, 10565018), 20% Fetal Bovine Serum (Gibco, 10270-106) and 100 U/mL penicillin and […] streptomycin (Gibco, 15140-122). To induce differentiation, FBS was reduced to 2% and kept in culture. All cells were maintained at 37° C. with 5% CO2. Cell transfections were done using TransiT (Mirus) according to the manufacturer's protocol with a 3:1 ratio of transfection agent to DNA. C2C12 cells were grown confluent, and 30 μM myriocin or DMSO was added and cells were kept in growth medium for another 3 days. Sptlc1 clones were plated to reach confluency simultaneously and were kept in growth medium for 3 days before using them for immunocytochemistry or RNA isolation. The concentration of myriocin in medium for all experiments was 30 μM. A stock solution of 20 mM myriocin in DMSO was used dissolve myriocin, and a corresponding volume of DMSO without myriocin was used as control.
# RNA isolation and real time qPCR. RNA was isolated using the RNeasy Mini kit (Qiagen, 74106) and reverse transcribed with the High-Capacity-RNA-to-cDNA kit (Thermo Fisher, 4387406). Gene expression was measured by qPCR using the Power SybrGreen Master mix (Thermo Fisher, 4367659). All quantitative polymerase chain reaction (PCR) results were calculated relative to the mean of the housekeeping gene Gapdh. The average of two technical replicates was used for each biological data point.
# Immunocytochemistry. C2C12 cells cultured on a sterilized cover slip in 6-well plates (Greiner bio-one, CELLSTAR, 657160) were fixed in Fixx solution (Thermo Scientific, 9990244) for 15 min and permeabilized in 0.1% Triton X-100 (Amresco, 0694) solution for 15 min at room temperature. Cells were blocked in 3% BSA for 1 h at room temperature to avoid unspecific antibody binding and then incubated with primary antibody over night at 4° C. with gentle shaking. […] The immunofluorescence images were acquired using either fluorescence or confocal microscopy. The myofusion index was calculated as the ratio of nuclei within myotubes to total nuclei. The myotube diameter was measured for 8 myotubes per image using ImageJ. Myotube area was calculated as the total area covered by myotubes.
smiles,measurement,setting,value
"CCCCCCC(=O)CCCCCCC=CCC(O)C(O)C(N)(CO)C(=O)O (stereo not drawn) [myriocin, 2-Amino-3,4-dihydroxy-2-(hydroxymethyl)-14-oxoicos-6-enoic acid]",proteostasis in skeletal muscle,[1]; aged mice treated with myriocin,improves proteostasis; also recorded: promoted proteostasis
same,amyloid beta aggregates (A11 staining),[1]; skeletal muscle of aged mice treated with myriocin,cleared amyloid beta aggregates
same,aerobic capacity (maximal oxygen consumption),aged C57Bl/6JRj mice,improved; also recorded: increased
same,crossing of a beam,aged C57Bl/6JRj mice,faster crossing
same,grip strength,aged C57Bl/6JRj mice,improved; also recorded: increased
same,performance in the rotarod test,aged C57Bl/6JRj mice,improved performance
same,running distance and time on a treadmill,aged C57Bl/6JRj mice,increased; also recorded: improved performance
same,speed reached before falling off the rotarod,aged C57Bl/6JRj mice,higher speed
same,fusion index,C2C12 myoblasts,greater
same,myoblast differentiation,C2C12 myoblasts,accelerated
same,"myogenic transcript signature (Myog, Myh4, Myh1)",C2C12 myoblasts,upregulation
same,myotube area,C2C12 myoblasts,greater
